Laboratory results reported in ChEMBL document CHEMBL4507260 (2021).

Key:
Conditions in all cases: Compound concentration 1000.0 nM
[1] = biological target: Tyrosine-protein kinase Mer (Homo sapiens) (UniProt Q12866)
[2] = biological target: Serine/threonine-protein kinase pim-3 (Homo sapiens) (UniProt Q86V86)
[3] = biological target: Fibroblast growth factor receptor 3 (Homo sapiens) (UniProt P22607)
[4] = system: Receptor-type tyrosine-protein kinase FLT3 (Homo sapiens), P36888 [R834Q]
[5] = biological target: Protein kinase C epsilon type (Homo sapiens) (UniProt Q02156)
[6] = biological target: Tyrosine-protein kinase Blk (Homo sapiens) (UniProt P51451)
[7] = biological target: Serine/threonine-protein kinase N2 (Homo sapiens) (UniProt Q16513)
[8] = system: Proto-oncogene tyrosine-protein kinase receptor Ret (Homo sapiens), P07949 [V804M]
[9] = biological target: Tyrosine-protein kinase HCK (Homo sapiens) (UniProt P08631)
[10] = biological target: Dual serine/threonine and tyrosine protein kinase (Homo sapiens) (UniProt Q6XUX3)
[11] = biological target: cAMP-dependent protein kinase catalytic subunit alpha (Homo sapiens) (UniProt P17612)
[12] = biological target: Dual specificity mitogen-activated protein kinase kinase 2 (Homo sapiens) (UniProt P36507)
[13] = biological target: Cyclin-dependent kinase 13 (Homo sapiens) (UniProt Q14004)
[14] = biological target: Serine/threonine-protein kinase 32C (Homo sapiens) (UniProt Q86UX6)
[15] = biological target: Serine/threonine-protein kinase Sgk1 (Homo sapiens) (UniProt O00141)
[16] = biological target: Calcium/calmodulin-dependent protein kinase type 1B (Homo sapiens) (UniProt Q6P2M8)
[17] = biological target: Interleukin-1 receptor-associated kinase 3 (Homo sapiens) (UniProt Q9Y616)
[18] = biological target: Platelet-derived growth factor receptor alpha (Homo sapiens) (UniProt P16234)
[19] = biological target: Phosphatidylinositol 5-phosphate 4-kinase type-2 beta (Homo sapiens) (UniProt P78356)
[20] = biological target: Mitogen-activated protein kinase kinase kinase 12 (Homo sapiens) (UniProt Q12852)
[21] = biological target: Mitogen-activated protein kinase 11 (Homo sapiens) (UniProt Q15759)
[22] = biological target: Calcium/calmodulin-dependent protein kinase type II subunit beta (Homo sapiens) (UniProt Q13554)
[23] = biological target: Mitotic checkpoint serine/threonine-protein kinase BUB1 (Homo sapiens) (UniProt O43683)
[24] = biological target: Receptor-interacting serine/threonine-protein kinase 1 (Homo sapiens) (UniProt Q13546)
[25] = biological target: Myosin light chain kinase, smooth muscle (Homo sapiens) (UniProt Q15746)
[26] = biological target: Cyclin-dependent kinase-like 2 (Homo sapiens) (UniProt Q92772)
[27] = biological target: Serine/threonine-protein kinase MRCK alpha (Homo sapiens) (UniProt Q5VT25)
[28] = biological target: Serine/threonine-protein kinase haspin (Homo sapiens) (UniProt Q8TF76)
[29] = biological target: Serine/threonine-protein kinase BRSK1 (Homo sapiens) (UniProt Q8TDC3)
[30] = system: Tyrosine-protein kinase ABL1 (Homo sapiens), P00519 [M351T]
[31] = biological target: Serine/threonine-protein kinase PAK 6 (Homo sapiens) (UniProt Q9NQU5)
[32] = biological target: Rhodopsin kinase GRK1 (Homo sapiens) (UniProt Q15835)
[33] = biological target: Insulin receptor (Homo sapiens) (UniProt P06213)
[34] = biological target: Fibroblast growth factor receptor 4 (Homo sapiens) (UniProt P22455)
[35] = biological target: Phosphatidylinositol 4,5-bisphosphate 3-kinase catalytic subunit delta isoform (Homo sapiens) (UniProt O00329)
[36] = biological target: Ephrin type-A receptor 5 (Homo sapiens) (UniProt P54756)
[37] = system: Tyrosine-protein kinase ABL1 (Homo sapiens), P00519 [T315I]
[38] = biological target: Tyrosine-protein kinase ABL1 (Homo sapiens) (UniProt P00519)
[39] = system: Leucine-rich repeat serine/threonine-protein kinase 2 (Homo sapiens), Q5S007 [G2019S]
[40] = biological target: Cyclin-dependent kinase 4 (Homo sapiens) (UniProt P11802)
[41] = system: Tyrosine-protein kinase ABL1 (Homo sapiens), P00519 [F317L]
[42] = biological target: Beta-adrenergic receptor kinase 1 (Homo sapiens) (UniProt P25098)
[43] = biological target: Calcium/calmodulin-dependent protein kinase type II subunit gamma (Homo sapiens) (UniProt Q13555)
[44] = biological target: RAC-gamma serine/threonine-protein kinase (Homo sapiens) (UniProt Q9Y243)
[45] = biological target: Serine/threonine-protein kinase Sgk3 (Homo sapiens) (UniProt Q96BR1)

Chain of Serine/threonine-protein kinase BRSK1 (Homo sapiens) (Q8TDC3 whole entry): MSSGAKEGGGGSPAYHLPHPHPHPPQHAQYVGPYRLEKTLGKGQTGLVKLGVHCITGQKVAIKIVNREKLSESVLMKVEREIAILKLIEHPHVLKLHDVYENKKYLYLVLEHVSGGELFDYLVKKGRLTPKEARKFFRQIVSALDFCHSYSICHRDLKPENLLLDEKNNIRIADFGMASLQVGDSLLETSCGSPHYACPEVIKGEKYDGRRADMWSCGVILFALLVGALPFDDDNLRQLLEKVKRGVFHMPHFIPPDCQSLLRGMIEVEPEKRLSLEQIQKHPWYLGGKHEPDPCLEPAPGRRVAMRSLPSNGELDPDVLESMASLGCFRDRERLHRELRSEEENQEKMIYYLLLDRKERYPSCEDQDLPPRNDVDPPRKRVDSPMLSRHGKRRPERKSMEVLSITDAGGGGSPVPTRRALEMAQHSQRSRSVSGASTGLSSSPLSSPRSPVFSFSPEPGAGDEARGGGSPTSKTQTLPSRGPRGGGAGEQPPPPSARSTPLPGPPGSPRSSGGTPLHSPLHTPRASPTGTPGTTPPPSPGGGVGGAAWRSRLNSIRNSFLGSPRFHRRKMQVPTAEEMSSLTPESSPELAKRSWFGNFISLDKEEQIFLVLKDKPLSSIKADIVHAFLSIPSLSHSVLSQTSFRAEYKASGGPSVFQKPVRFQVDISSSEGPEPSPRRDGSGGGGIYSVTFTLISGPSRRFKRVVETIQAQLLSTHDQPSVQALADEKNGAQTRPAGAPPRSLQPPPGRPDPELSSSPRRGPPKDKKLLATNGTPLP
Chain of Leucine-rich repeat serine/threonine-protein kinase 2 (Homo sapiens), Q5S007 [G2019S] (Q5S007 whole entry G2019S): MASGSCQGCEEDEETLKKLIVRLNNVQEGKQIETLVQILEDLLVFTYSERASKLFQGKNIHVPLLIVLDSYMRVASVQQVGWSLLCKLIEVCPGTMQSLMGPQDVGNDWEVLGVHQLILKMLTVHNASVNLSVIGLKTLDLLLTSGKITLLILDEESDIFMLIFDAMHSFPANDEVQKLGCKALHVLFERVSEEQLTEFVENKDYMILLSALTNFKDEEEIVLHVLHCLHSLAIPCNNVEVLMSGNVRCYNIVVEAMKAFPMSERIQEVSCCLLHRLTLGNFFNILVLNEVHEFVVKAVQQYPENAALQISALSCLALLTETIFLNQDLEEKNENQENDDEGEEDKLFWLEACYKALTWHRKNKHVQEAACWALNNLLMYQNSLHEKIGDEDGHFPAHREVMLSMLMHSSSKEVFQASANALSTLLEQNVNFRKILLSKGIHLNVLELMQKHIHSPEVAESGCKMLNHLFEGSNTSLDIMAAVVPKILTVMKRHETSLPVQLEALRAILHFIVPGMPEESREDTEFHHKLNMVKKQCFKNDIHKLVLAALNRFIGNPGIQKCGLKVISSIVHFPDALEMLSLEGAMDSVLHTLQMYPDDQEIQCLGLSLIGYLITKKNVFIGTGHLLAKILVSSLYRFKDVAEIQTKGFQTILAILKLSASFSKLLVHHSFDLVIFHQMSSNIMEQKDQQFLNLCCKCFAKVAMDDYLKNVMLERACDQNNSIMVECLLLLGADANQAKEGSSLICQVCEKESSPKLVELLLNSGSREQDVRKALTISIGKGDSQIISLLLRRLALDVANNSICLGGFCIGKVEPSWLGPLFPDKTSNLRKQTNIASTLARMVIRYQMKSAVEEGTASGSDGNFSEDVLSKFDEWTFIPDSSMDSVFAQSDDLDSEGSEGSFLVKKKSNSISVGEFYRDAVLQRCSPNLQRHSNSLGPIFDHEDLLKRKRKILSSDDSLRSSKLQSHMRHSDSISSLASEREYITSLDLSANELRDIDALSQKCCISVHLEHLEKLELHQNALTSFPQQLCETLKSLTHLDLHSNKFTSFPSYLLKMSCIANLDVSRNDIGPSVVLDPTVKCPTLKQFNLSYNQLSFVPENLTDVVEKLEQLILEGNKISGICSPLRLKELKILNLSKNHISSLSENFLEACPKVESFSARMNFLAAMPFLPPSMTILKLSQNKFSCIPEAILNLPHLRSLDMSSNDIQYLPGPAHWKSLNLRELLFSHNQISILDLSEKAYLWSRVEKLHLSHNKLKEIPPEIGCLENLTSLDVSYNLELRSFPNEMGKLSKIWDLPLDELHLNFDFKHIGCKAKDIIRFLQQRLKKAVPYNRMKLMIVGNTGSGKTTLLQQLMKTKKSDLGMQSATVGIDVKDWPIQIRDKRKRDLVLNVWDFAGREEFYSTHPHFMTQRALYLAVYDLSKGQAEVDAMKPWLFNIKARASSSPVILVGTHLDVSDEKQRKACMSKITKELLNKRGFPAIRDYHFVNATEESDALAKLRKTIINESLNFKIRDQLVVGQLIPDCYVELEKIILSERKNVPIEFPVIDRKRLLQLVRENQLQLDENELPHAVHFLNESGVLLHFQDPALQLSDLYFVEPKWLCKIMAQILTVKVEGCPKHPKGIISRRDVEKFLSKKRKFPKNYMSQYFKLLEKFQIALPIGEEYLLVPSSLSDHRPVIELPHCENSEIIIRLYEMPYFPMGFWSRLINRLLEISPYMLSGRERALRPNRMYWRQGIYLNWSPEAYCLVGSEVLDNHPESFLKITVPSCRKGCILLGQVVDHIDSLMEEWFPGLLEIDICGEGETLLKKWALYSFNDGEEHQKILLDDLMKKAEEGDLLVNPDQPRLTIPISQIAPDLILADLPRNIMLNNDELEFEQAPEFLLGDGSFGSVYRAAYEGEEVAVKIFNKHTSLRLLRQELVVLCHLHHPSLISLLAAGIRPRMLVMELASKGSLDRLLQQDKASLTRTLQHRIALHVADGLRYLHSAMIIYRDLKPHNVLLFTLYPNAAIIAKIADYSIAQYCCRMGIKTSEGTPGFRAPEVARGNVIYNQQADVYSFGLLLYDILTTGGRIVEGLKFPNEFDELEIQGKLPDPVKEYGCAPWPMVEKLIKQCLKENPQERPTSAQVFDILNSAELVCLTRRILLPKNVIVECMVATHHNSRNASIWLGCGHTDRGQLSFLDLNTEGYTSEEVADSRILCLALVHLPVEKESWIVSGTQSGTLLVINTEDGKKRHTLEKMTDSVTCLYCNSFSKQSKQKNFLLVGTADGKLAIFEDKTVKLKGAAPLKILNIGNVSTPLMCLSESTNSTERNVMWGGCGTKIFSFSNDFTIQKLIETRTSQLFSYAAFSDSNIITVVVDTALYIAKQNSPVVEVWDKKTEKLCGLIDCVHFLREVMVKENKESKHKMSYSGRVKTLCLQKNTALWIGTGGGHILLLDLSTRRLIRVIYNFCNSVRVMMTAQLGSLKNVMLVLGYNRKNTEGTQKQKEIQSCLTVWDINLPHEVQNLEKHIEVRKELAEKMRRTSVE
Chain of Phosphatidylinositol 4,5-bisphosphate 3-kinase catalytic subunit delta isoform (Homo sapiens) (O00329 whole entry, canonical isoform): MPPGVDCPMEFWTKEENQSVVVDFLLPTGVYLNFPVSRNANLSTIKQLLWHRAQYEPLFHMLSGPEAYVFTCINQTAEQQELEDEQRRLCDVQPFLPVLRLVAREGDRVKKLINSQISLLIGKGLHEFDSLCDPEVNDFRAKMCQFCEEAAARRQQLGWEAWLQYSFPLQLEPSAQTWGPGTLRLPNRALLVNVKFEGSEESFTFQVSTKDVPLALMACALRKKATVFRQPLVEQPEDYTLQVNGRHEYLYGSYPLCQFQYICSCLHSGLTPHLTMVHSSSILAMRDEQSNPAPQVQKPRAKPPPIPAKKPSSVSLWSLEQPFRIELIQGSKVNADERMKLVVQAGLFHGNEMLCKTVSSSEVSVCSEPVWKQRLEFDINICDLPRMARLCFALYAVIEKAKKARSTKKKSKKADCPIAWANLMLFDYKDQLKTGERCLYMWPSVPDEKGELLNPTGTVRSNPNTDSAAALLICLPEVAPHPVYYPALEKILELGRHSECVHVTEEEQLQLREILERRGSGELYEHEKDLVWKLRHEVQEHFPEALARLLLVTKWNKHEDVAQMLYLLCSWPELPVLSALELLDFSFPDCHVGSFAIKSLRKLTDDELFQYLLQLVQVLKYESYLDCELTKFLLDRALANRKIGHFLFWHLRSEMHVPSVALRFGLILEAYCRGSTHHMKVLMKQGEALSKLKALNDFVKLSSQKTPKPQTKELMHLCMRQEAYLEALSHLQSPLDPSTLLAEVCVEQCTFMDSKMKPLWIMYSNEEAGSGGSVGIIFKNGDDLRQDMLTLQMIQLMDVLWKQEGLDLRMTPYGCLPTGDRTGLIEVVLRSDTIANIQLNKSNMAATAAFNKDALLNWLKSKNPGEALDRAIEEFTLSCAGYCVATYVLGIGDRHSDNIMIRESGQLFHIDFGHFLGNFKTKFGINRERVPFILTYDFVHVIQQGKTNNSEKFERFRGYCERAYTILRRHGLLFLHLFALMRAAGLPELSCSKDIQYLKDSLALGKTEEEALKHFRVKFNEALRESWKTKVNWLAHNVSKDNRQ
Chain of Phosphatidylinositol 5-phosphate 4-kinase type-2 beta (Homo sapiens) (P78356 whole entry): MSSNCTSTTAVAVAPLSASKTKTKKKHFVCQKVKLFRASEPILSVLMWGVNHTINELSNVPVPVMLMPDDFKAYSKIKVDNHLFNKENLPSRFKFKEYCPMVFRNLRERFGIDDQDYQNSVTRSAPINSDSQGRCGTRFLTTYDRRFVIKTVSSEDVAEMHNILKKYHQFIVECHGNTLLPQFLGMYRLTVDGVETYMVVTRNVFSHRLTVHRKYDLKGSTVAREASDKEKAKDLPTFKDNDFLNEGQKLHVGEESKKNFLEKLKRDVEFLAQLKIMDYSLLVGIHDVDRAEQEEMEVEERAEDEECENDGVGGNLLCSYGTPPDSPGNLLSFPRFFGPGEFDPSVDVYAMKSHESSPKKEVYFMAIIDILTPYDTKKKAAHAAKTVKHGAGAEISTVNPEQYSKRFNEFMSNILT
Chain of Calcium/calmodulin-dependent protein kinase type 1B (Homo sapiens) (Q6P2M8 whole entry): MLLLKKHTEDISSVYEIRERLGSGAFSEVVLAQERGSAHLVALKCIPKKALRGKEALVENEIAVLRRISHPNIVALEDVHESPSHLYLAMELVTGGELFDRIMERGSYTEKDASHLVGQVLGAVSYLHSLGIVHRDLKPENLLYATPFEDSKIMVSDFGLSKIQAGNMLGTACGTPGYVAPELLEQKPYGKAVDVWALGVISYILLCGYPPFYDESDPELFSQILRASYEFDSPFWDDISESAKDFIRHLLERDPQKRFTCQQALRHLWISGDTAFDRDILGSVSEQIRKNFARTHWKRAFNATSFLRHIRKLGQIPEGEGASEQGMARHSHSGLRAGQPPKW

## CSc1cccnc1N1CCN(Cc2nc3ccccc3[nH]2)CC1 [A-769]
[1]
  residual activity: 80%
[2]
  residual activity: 94%
[3]
  residual activity: 100%
[4]
  residual activity: 100%
[5]
  residual activity: 77%
[6]
  residual activity: 96%
[7]
  residual activity: 62%
[8]
  residual activity: 100%
[9]
  residual activity: 82%
[10]
  residual activity: 76%
[11]
  residual activity: 92%
[12]
  residual activity: 70%
[13]
  residual activity: 85%
[14]
  residual activity: 71%
[15]
  residual activity: 82%
[16]
  residual activity: 100%
[17]
  residual activity: 94%
[18]
  residual activity: 89%
[19]
  residual activity: 100%
[20]
  residual activity: 74%
[21]
  residual activity: 100%
[22]
  residual activity: 100%
[23]
  residual activity: 90%
[24]
  residual activity: 100%
[25]
  residual activity: 94%
[26]
  residual activity: 84%
[27]
  residual activity: 100%
[28]
  residual activity: 100%
[29]
  residual activity: 100%
[30]
  residual activity: 94%
[31]
  residual activity: 100%
[32]
  residual activity: 100%
[33]
  residual activity: 85%
[34]
  residual activity: 89%
[35]
  residual activity: 100%
[36]
  residual activity: 100%
[37]
  residual activity: 99%
[38]
  residual activity: 78%
[39]
  residual activity: 92%
[40]
  residual activity: 82%
[41]
  residual activity: 100%
[42]
  residual activity: 93%
[43]
  residual activity: 100%
[44]
  residual activity: 92%
[45]
  residual activity: 95%

## c1ccc(N2CCN(Cc3nc4ccccc4[nH]3)CC2)nc1 [ABT-724]
[1]
  residual activity: 90%
[2]
  residual activity: 100%
[3]
  residual activity: 96%
[4]
  residual activity: 100%
[5]
  residual activity: 100%
[6]
  residual activity: 100%
[7]
  residual activity: 100%
[8]
  residual activity: 100%
[9]
  residual activity: 100%
[10]
  residual activity: 100%
[11]
  residual activity: 91%
[12]
  residual activity: 100%
[13]
  residual activity: 100%
[14]
  residual activity: 100%
[15]
  residual activity: 100%
[16]
  residual activity: 0%
[17]
  residual activity: 100%
[18]
  residual activity: 100%
[19]
  residual activity: 100%
[20]
  residual activity: 97%
[21]
  residual activity: 88%
[22]
  residual activity: 100%
[23]
  residual activity: 100%
[24]
  residual activity: 100%
[25]
  residual activity: 80%
[26]
  residual activity: 100%
[27]
  residual activity: 100%
[28]
  residual activity: 100%
[29]
  residual activity: 91%
[30]
  residual activity: 100%
[31]
  residual activity: 100%
[32]
  residual activity: 92%
[33]
  residual activity: 100%
[34]
  residual activity: 93%
[35]
  residual activity: 69%
[36]
  residual activity: 100%
[37]
  residual activity: 100%
[38]
  residual activity: 100%
[39]
  residual activity: 100%
[40]
  residual activity: 100%
[41]
  residual activity: 100%
[42]
  residual activity: 90%
[43]
  residual activity: 100%
[44]
  residual activity: 100%
[45]
  residual activity: 100%
